Measured values taken from PubChem BioAssay AID1963832 (Molecular Pharmacology Branch, DTP, NCI, 2024).

Test system: 885724-159-R-J1-PDC complex spheroid viability
Experiment: Anticancer human tumor 885724-159-R-J1-PDC patient-derived pancreatic adenocarcinoma cell line growth inhibition [POLQ]
Details: for IC50: curve of first compound; for viability, T/C: stronger effect = lower value
Protocol: Multicellular complex tumor spheroid response to Polymerase (POL) inhibitors (novobiocin, ART-558, RP6685) in combination with a variety of drugs and investigational agents in selected tumor cell lines
The POL inhibitors (novobiocin, ART-558, and RP6685) were evaluated both individually and in combination with standard of care and investigational anticancer small molecules within a complex spheroid model of solid tumors. . Complex spheroids include a stromal component modeled by human endothelial cells (HUVEC) and fibroblasts modeled by human mesenchymal stem cells (MSCs). The concentration ranges selected for each drug and investigational agent were based upon clinically achievable concentrations if the clinical Cmax of the agent was known.
Compounds. The drugs and investigational agents: novobiocin (NSC847541), ART-558 (NSC835418), RP-6685 (NSC848927), peposertib (NSC802822), ceralasertib (NSC780249), elimusertib (NSC800525), camonsertib (NSC841442), AZD-1390 (NSC803789), olaparib (NSC753686), talazoparib (NSC767125), rucaparib (NSC756644), sotorasib (NSC818433), MRTX-1133 (NSC836407), SN-38 (NSC673596), topotecan (NSC609699), epotoside (NSC141540), doxorubicin (NSC123127), gemcitabine (NSC613327), 5-fluorouracil (NSC19893), paclitaxel (NSC125973), vemurafenib (NSC761431), MSA-2 (NSC828583), SN-011 (NSC837082), adavosertib (NSC754352), prexasertib (NSC758257), carboplatin (NSC241240) and oxaliplatin (NSC266046), were obtained from the National Cancer Institute (NCI) Developmental Therapeutics Program Chemical Repository (21). The FDA-approved anticancer drug set is available from the Developmental Therapeutics Program at https://dtp.cancer.gov/organization/dscb/obtaining/. […] The stock solutions were prepared in dimethyl sulfoxide (DMSO, Sigma-Aldrich, St. Louis, MO, cat. D2650), except for the platinum compounds which were prepared in saline (Quality Biological, Gaithersburg, MD, cat. 114-055-101), at 800-fold the tested concentration and stored at -70 degrees C prior to their use. All drugs and investigational agents were tested over a range starting from a high concentration at or near the clinical Cmax and decreasing in half-log increments. If the clinical Cmax for an agent had not been determined, the highest concentration tested was 10 microM, except for SN-38, which was tested at a high concentration of 1 microM.
Cell Culture. All cells were maintained in an incubator at 37 degrees C and 5% CO2 with 95% humidity. The PDC lines were cultured according to standard operating procedures established by the NCI PDMR (https://pdmr.cancer.gov). Table 3 of the manuscript, lists the cell lines along with the number of the three cell types plated to form the mct-spheroids and media for tumor cell growth. After thawing, all PDC lines, except 997537-175-T-J1-PDC and 415267-285-R-J2-PDC, were cultured in Matrigel-coated flasks prepared with a working solution of 1X Ham's F-12 nutrient mix, without supplementation (Thermo Fisher Scientific, cat. 11765054), 100 U/mL penicillin-streptomycin (Thermo Fisher Scientific, cat. 15140122), and 2.5% Matrigel (Corning Inc., Corning, NY, cat. 354248) for the first three passages. The two PDC lines 997537-175-T-J1-PDC and 415267-285-R-J2-PDC were cultured on uncoated flasks. The 857933-349-R-J2-PDC line was cultured in 6C/Colon 1B media containing advanced DMEM/F-12 (Thermo Fisher Scientific, cat. 12634028), 10 mM HEPES (Thermo Fisher Scientific, cat. 15630080), 1X GlutaMAX supplement (Thermo Fisher Scientific, cat. 35050061), 0.1 mg/mL primocin (InvivoGen, San Diego, CA, cat. ant-pm-2), 10% defined fetal bovine serum, heat inactivated (HyClone Laboratories Inc., Logan, UT, cat. SH30070.03HI), 50% L-WRN conditioned media (ATCC, cat. CRL-3276), 1.25 mM N-Acetyl-L-cysteine (Sigma-Aldrich, cat. A9165), 10 mM nicotinamide (Sigma-Aldrich, cat. N0636), 1X B-27 supplement (Thermo Fisher Scientific, cat. 17504044), 1X N-2 supplement (Thermo Fisher Scientific, cat. […]

[1] = second compound 0.0316 µM, first compound 0.0316 µM
[2] = second compound 0.0316 µM, first compound 0.1 µM
[3] = second compound 0.1 µM, first compound 0.0316 µM
[4] = second compound 0.1 µM, first compound 0.1 µM
[5] = second compound 0.316 µM, first compound 0.0316 µM
[6] = second compound 0.316 µM, first compound 0.1 µM
[7] = second compound 1 µM, first compound 0.0316 µM
[8] = second compound 1 µM, first compound 0.1 µM
[9] = second compound 3.16 µM, first compound 0.0316 µM
[10] = second compound 3.16 µM, first compound 0.1 µM
[11] = second compound 10 µM, first compound 0.0316 µM
[12] = second compound 10 µM, first compound 0.1 µM
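Also: spheroids exposed to compounds for 7 days.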

## CCCS(=O)(=O)Nc1ccc(F)c(C(=O)c2c[nH]c3ncc(-c4ccc(Cl)cc4)cc23)c1F + Cc1cccc(N(C)C(=O)C2C(O)CCN2c2nc(C)cc(C(F)(F)F)c2C#N)c1
Second compound 0.0316 µM
  IC50: > 10 µM
Second compound 0.1 µM
  IC50: > 10 µM
Second compound 0.316 µM
  IC50: > 10 µM
Second compound 1 µM
  IC50: > 10 µM
Second compound 3.16 µM
  IC50: > 10 µM
Second compound 10 µM
  IC50: > 10 µM
[1]
  viability, T/C: 100%
[2]
  viability, T/C: 118%
Second compound 0.0316 µM, first compound 0.316 µM
  viability, T/C: 116%
Second compound 0.0316 µM, first compound 1 µM
  viability, T/C: 142%
Second compound 0.0316 µM, first compound 3.16 µM
  viability, T/C: 140%
Second compound 0.0316 µM, first compound 10 µM
  viability, T/C: 94.6%
[3]
  viability, T/C: 99.8%
[4]
  viability, T/C: 111%
Second compound 0.1 µM, first compound 0.316 µM
  viability, T/C: 122%
Second compound 0.1 µM, first compound 1 µM
  viability, T/C: 142%
Second compound 0.1 µM, first compound 3.16 µM
  viability, T/C: 158%
Second compound 0.1 µM, first compound 10 µM
  viability, T/C: 99.4%
[5]
  viability, T/C: 103%
[6]
  viability, T/C: 112%
Second compound 0.316 µM, first compound 0.316 µM
  viability, T/C: 135%
Second compound 0.316 µM, first compound 1 µM
  viability, T/C: 158%
Second compound 0.316 µM, first compound 3.16 µM
  viability, T/C: 158%
Second compound 0.316 µM, first compound 10 µM
  viability, T/C: 100%
[7]
  viability, T/C: 117%
[8]
  viability, T/C: 102%
Second compound 1 µM, first compound 0.316 µM
  viability, T/C: 123%
Second compound 1 µM, first compound 1 µM
  viability, T/C: 144%
Second compound 1 µM, first compound 3.16 µM
  viability, T/C: 160%
Second compound 1 µM, first compound 10 µM
  viability, T/C: 97.5%
[9]
  viability, T/C: 108%
[10]
  viability, T/C: 109%
Second compound 3.16 µM, first compound 0.316 µM
  viability, T/C: 121%
Second compound 3.16 µM, first compound 1 µM
  viability, T/C: 155%
Second compound 3.16 µM, first compound 3.16 µM
  viability, T/C: 151%
Second compound 3.16 µM, first compound 10 µM
  viability, T/C: 86.6%
[11]
  viability, T/C: 101%
[12]
  viability, T/C: 105%
Second compound 10 µM, first compound 0.316 µM
  viability, T/C: 143%
Second compound 10 µM, first compound 1 µM
  viability, T/C: 153%
Second compound 10 µM, first compound 3.16 µM
  viability, T/C: 137%
Second compound 10 µM, first compound 10 µM
  viability, T/C: 82.9%

## CC[C@@]1(O)C(=O)OCc2c1cc1n(c2=O)Cc2cc3c(CN(C)C)c(O)ccc3nc2-1 + Cc1cccc(N(C)C(=O)C2C(O)CCN2c2nc(C)cc(C(F)(F)F)c2C#N)c1
Second compound 0.0316 µM
  IC50: > 0.1 µM
Second compound 0.1 µM
  IC50: > 0.1 µM
Second compound 0.316 µM
  IC50: > 0.1 µM
Second compound 1 µM
  IC50: > 0.1 µM
Second compound 3.16 µM
  IC50: > 0.1 µM
Second compound 10 µM
  IC50: > 0.1 µM
Second compound 0.0316 µM, first compound 0.000316 µM
  viability, T/C: 112%
Second compound 0.0316 µM, first compound 0.001 µM
  viability, T/C: 103%
Second compound 0.0316 µM, first compound 0.00316 µM
  viability, T/C: 98%
Second compound 0.0316 µM, first compound 0.01 µM
  viability, T/C: 93.5%
[1]
  viability, T/C: 72%
[2]
  viability, T/C: 65.5%
Second compound 0.1 µM, first compound 0.000316 µM
  viability, T/C: 111%
Second compound 0.1 µM, first compound 0.001 µM
  viability, T/C: 112%
Second compound 0.1 µM, first compound 0.00316 µM
  viability, T/C: 93.4%
Second compound 0.1 µM, first compound 0.01 µM
  viability, T/C: 93%
[3]
  viability, T/C: 73.2%
[4]
  viability, T/C: 68.1%
Second compound 0.316 µM, first compound 0.000316 µM
  viability, T/C: 117%
Second compound 0.316 µM, first compound 0.001 µM
  viability, T/C: 104%
Second compound 0.316 µM, first compound 0.00316 µM
  viability, T/C: 103%
Second compound 0.316 µM, first compound 0.01 µM
  viability, T/C: 100%
[5]
  viability, T/C: 74.9%
[6]
  viability, T/C: 62.4%
Second compound 1 µM, first compound 0.000316 µM
  viability, T/C: 100%
Second compound 1 µM, first compound 0.001 µM
  viability, T/C: 98%
Second compound 1 µM, first compound 0.00316 µM
  viability, T/C: 99.5%
Second compound 1 µM, first compound 0.01 µM
  viability, T/C: 94.2%
[7]
  viability, T/C: 81.8%
[8]
  viability, T/C: 61.7%
Second compound 3.16 µM, first compound 0.000316 µM
  viability, T/C: 108%
Second compound 3.16 µM, first compound 0.001 µM
  viability, T/C: 99.3%
Second compound 3.16 µM, first compound 0.00316 µM
  viability, T/C: 98.8%
Second compound 3.16 µM, first compound 0.01 µM
  viability, T/C: 101%
[9]
  viability, T/C: 71.6%
[10]
  viability, T/C: 55.3%
Second compound 10 µM, first compound 0.000316 µM
  viability, T/C: 99.9%
Second compound 10 µM, first compound 0.001 µM
  viability, T/C: 95.3%
Second compound 10 µM, first compound 0.00316 µM
  viability, T/C: 90.5%
Second compound 10 µM, first compound 0.01 µM
  viability, T/C: 87.6%
[11]
  viability, T/C: 83%
[12]
  viability, T/C: 63.6%
